Measured values: patent US20070049593A1 (priority 2004, published 2007)

Target: T1, HCV polymerase (Hepatitis C virus genotype 1b, UniProt P26663)
T1 construct: a region encoding NS5B (J Virol 1991 March, 65(3), 1105-13, 544 amino acids after deletion of 47 amino acids on the C-terminal); 6xHis (C); made in house; host or cells: Escherichia coli
Assay: biochemical
Design: species or system HCV BK strain
Details: not given
Summary of the method: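 Recombinant HCV BK-strain NS5B (C-terminal 47 aa deleted, His6-tagged, E. coli), 0.5 μg/ml, run with 5 μg/ml in vitro-transcribed RNA template (polyU/3′X), ATP/GTP/CTP 50 μM, UTP 2 μM plus [3H]UTP, pH 7.5, 25° C, 90 min. TCA-precipitated RNA counted by scintillation; IC50 from activity with vs without compound.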

T1 sequence (P26663 2420-2963): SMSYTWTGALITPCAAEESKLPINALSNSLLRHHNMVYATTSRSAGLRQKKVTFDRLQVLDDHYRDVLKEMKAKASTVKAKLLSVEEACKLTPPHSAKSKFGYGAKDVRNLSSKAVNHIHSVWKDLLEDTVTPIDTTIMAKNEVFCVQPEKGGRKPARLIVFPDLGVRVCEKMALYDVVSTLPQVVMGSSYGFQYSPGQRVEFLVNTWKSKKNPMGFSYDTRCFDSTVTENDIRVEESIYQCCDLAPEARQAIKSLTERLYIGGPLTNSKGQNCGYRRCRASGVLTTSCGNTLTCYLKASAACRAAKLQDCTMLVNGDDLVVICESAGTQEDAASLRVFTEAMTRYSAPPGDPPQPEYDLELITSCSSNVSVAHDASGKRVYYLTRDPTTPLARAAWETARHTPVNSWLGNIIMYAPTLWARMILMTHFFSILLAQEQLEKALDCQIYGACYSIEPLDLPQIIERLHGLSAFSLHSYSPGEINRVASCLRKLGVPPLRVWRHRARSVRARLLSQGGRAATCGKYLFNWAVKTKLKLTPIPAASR

Row | Structure (SMILES) | IC50
1 | CNC(=O)COc1ccc(C[C@H](NC(=O)c2ccc3c(C4CCCCC4)c4n(c3c2)CCOc2cc(OC)ccc2-4)C(=O)OC)cc1 [Example 2-382, methyl (S)-2-[(12-cyclohexyl-3-methoxy-6,7-dihydro-5-oxa-7a-azadibenzo[a,e]azulene-9-carbonyl)amino]-3-[4-(methylcarbamoylmethoxy)phenyl]propionate] | < 100 nM
2 | COC(=O)[C@H](Cc1ccc(OCC(=O)N(C)C)cc1)NC(=O)c1ccc2c(C3CCCCC3)c3n(c2c1)CCOc1cc(OC)ccc1-3 [Example 2-383, methyl (S)-2-[(12-cyclohexyl-3-methoxy-6,7-dihydro-5-oxa-7a-azadibenzo[a,e]azulene-9-carbonyl)amino]-3-[4-(dimethylcarbamoylmethoxy)phenyl]propionate] | < 100 nM
3 | CNC(=O)[C@H](Cc1ccc(NC(=O)OC)cc1)NC(=O)c1ccc2c(C3CCCCC3)c3n(c2c1)CCOc1cc(OC)ccc1-3 [Example 2-384, methyl (4-{(S)-2-[(12-cyclohexyl-3-methoxy-6,7-dihydro-5-oxa-7a-azadibenzo[a,e]azulene-9-carbonyl)amino]-2-(methylcarbamoyl)ethyl}phenyl)carbamate] | < 100 nM
4 | COc1ccc2c(c1)OCCn1c-2c(C2CCCCC2)c2ccc(C(=O)NC(C)(C)c3nc4cc(C(=O)N5CCC(O)CC5)ccc4[nH]3)cc21 [Example 2-386, N-{1-[5-(4-hydroxypiperidine-1-carbonyl)-1H-benzimidazol-2-yl]-1-methylethyl}-12-cyclohexyl-3-methoxy-6,7-dihydro-5-oxa-7a-azadibenzo[a,e]azulene-9-carboxamide] | < 100 nM
5 | COc1ccc2c(c1)OCCn1c-2c(C2CCCCC2)c2ccc(C(=O)N[C@@H](Cc3ccc(O)cc3)C(=O)NCCO)cc21 [Example 2-387, N—[(S)-1-(2-hydroxyethylcarbamoyl)-2-(4-hydroxyphenyl)ethyl]-12-cyclohexyl-3-methoxy-6,7-dihydro-5-oxa-7a-azadibenzo[a,e]azulene-9-carboxamide] | < 100 nM
6 | COc1ccc2c(c1)OCCn1c-2c(C2CCCCC2)c2ccc(C(=O)N[C@@H](Cc3ccc(O)cc3)c3nc(C)no3)cc21 [Example 2-388, N—[(S)-2-(4-hydroxyphenyl)-1-(3-methyl-1,2,4-oxadiazol-5-yl)ethyl]-12-cyclohexyl-3-methoxy-6,7-dihydro-5-oxa-7a-azadibenzo[a,e]azulene-9-carboxamide] | < 100 nM
7 | COc1ccc2c(c1)OCCn1c-2c(C2CCCCC2)c2ccc(C(=O)N[C@@H](Cc3ccc(O)cc3)C(=O)NCCN(C)C)cc21 [Example 2-389, N—[(S)-1-(2-dimethylaminoethylcarbamoyl)-2-(4-hydroxyphenyl)ethyl]-12-cyclohexyl-3-methoxy-6,7-dihydro-5-oxa-7a-azadibenzo[a,e]azulene-9-carboxamide] | < 100 nM
8 | COc1ccc2c(c1)OCCn1c-2c(C2CCCCC2)c2ccc(C(=O)NC(C)(C)c3nc4cc(C(=O)NCCO)ccc4[nH]3)cc21 [Example 2-390, N-{1-[5-(2-hydroxyethylcarbamoyl)-1H-benzimidazol-2-yl]-1-methylethyl}-12-cyclohexyl-3-methoxy-6,7-dihydro-5-oxa-7a-azadibenzo[a,e]azulene-9-carboxamide] | < 100 nM
9 | COC(=O)[C@H](Cc1ccc(NC(=O)N(C)C)cc1)NC(=O)c1ccc2c(C3CCCCC3)c3n(c2c1)CCOc1cc(OC)ccc1-3 [Example 2-391, methyl (S)-2-[(12-cyclohexyl-3-methoxy-6,7-dihydro-5-oxa-7a-azadibenzo[a,e]azulene-9-carbonyl)amino]-3-[4-(3,3-dimethylureido)phenyl]propionate] | < 100 nM
10 | COC(=O)[C@H](Cc1ccc(OCCCO)cc1)NC(=O)c1ccc2c(C3CCCCC3)c3n(c2c1)CCOc1cc(OC)ccc1-3 [Example 2-392, methyl (S)-2-[(12-cyclohexyl-3-methoxy-6,7-dihydro-5-oxa-7a-azadibenzo[a,e]azulene-9-carbonyl)amino]-3-[4-(3-hydroxypropoxy)phenyl]propionate] | < 100 nM
11 | COC(=O)C(Cc1ccc(CO)cc1)NC(=O)c1ccc2c(C3CCCCC3)c3n(c2c1)CCOc1cc(OC)ccc1-3 (stereo not drawn) [Example 2-393, methyl 2-[(12-cyclohexyl-3-methoxy-6,7-dihydro-5-oxa-7a-azadibenzo[a,e]azulene-9-carbonyl)amino]-3-(4-hydroxymethylphenyl)propionate] | < 100 nM
12 | COc1ccc2c(c1)OCCn1c-2c(C2CCCCC2)c2ccc(C(=O)NC(C)(C)c3nc4cccnc4[nH]3)cc21 [Example 2-394, N-[1-(3H-imidazo[4,5-b]pyridin-2-yl)-1-methylethyl]-12-cyclohexyl-3-methoxy-6,7-dihydro-5-oxa-7a-azadibenzo[a,e]azulene-9-carboxamide] | < 100 nM
13 | COc1ccc2c(c1)OCCn1c-2c(C2CCCCC2)c2ccc(C(=O)NC(C)(C)c3nc4cc(C(=O)O)ccc4n3CCN3CCOCC3)cc21 [Example 2-395, 2-{1-[(12-cyclohexyl-3-methoxy-6,7-dihydro-5-oxa-7a-azadibenzo[a,e]azulene-9-carbonyl)amino]-1-methylethyl]-1-[2-(morpholin-4-yl)ethyl]-1H-benzimidazole-5-carboxylic acid] | < 100 nM
14 | CNC(=O)c1ccc2[nH]c(C(C)(C)NC(=O)c3ccc4c(C5CCCCC5)c5n(c4c3)CCOc3cc(OC)ccc3-5)nc2c1 [Example 2-396, N-[1-methyl-1-(5-methylcarbamoyl-1H-benzimidazol-2-yl)ethyl]-12-cyclohexyl-3-methoxy-6,7-dihydro-5-oxa-7a-azadibenzo[a,e]azulene-9-carboxamide] | < 100 nM
15 | COc1ccc2c(c1)OCCn1c-2c(C2CCCCC2)c2ccc(C(=O)NC3(C(=O)Nc4ccc(C(=O)O)cc4)CCN(C)CC3)cc21 [Example 2-397, 4-([4-[(12-cyclohexyl-3-methoxy-6,7-dihydro-5-oxa-7a-azadibenzo[a,e]azulene-9-carbonyl)amino]-1-methylpiperidine-4-carbonyl)amino)benzoic acid] | < 100 nM
16 | CCOC(=O)c1ccc(-c2cnc(C(C)(C)NC(=O)c3ccc4c(C5CCCCC5)c5n(c4c3)CCOc3cc(OC)ccc3-5)[nH]2)cc1 [Example 2-398, ethyl 4-(2-{1-[(12-cyclohexyl-3-methoxy-6,7-dihydro-5-oxa-7a-azadibenzo[a,e]azulene-9-carbonyl)amino]-1-methylethyl}-3H-imidazol-4-yl)benzoate] | < 100 nM
17 | COc1ccc2c(c1)OCCn1c-2c(C2CCCCC2)c2ccc(C(=O)NC(C)(C)c3ncc(-c4ccc(C(=O)O)cc4)[nH]3)cc21 [Example 2-399, 4-(2-{1-[(12-cyclohexyl-3-methoxy-6,7-dihydro-5-oxa-7a-azadibenzo[a,e]azulene-9-carbonyl)amino]-1-methylethyl}-3H-imidazol-4-yl)benzoic acid] | < 100 nM
18 | COc1ccc2c(c1)OCCn1c-2c(C2CCCCC2)c2ccc(C(=O)NC3(C(=O)O)CCOCC3)cc21 [Example 2-400, 4-[(12-cyclohexyl-3-methoxy-6,7-dihydro-5-oxa-7a-azadibenzo[a,e]azulene-9-carbonyl)amino]tetrahydropyran-4-carboxylic acid] | < 100 nM
19 | COc1ccc2c(c1)OCCn1c-2c(C2CCCCC2)c2ccc(C(=O)NC3(C(=O)Nc4ccc(/C=C/C(=O)O)cc4)CCOCC3)cc21 [Example 2-401, (E)-3-[4-({4-[(12-cyclohexyl-3-methoxy-6,7-dihydro-5-oxa-7a-azadibenzo[a,e]azulene-9-carbonyl)amino]tetrahydropyran-4-carbonyl}amino)phenyl]acrylic acid] | < 100 nM
20 | COc1ccc2c(c1)OCCn1c-2c(C2CCCCC2)c2ccc(C(=O)NC3(C(=O)Nc4ccc(C(=O)O)cc4)CCOCC3)cc21 [Example 2-402, 4-({4-[(12-cyclohexyl-3-methoxy-6,7-dihydro-5-oxa-7a-azadibenzo[a,e]azulene-9-carbonyl)amino]tetrahydropyran-4-carbonyl}amino)benzoic acid] | < 100 nM
21 | COc1ccc2c(c1)OCCn1c-2c(C2CCCCC2)c2ccc(C(=O)NC(C)(C)c3nc4cc(C(=O)O)ccc4c(=O)[nH]3)cc21 [Example 2-403, 2-{1-[(12-cyclohexyl-3-methoxy-6,7-dihydro-5-oxa-7a-azadibenzo[a,e]azulene-9-carbonyl)amino]-1-methylethyl}-4-oxo-3,4-dihydroquinazoline-7-carboxylic acid] | < 100 nM
22 | COc1ccc2c(c1)OCCn1c-2c(C2CCCCC2)c2ccc(C(=O)NC(C)(C)c3nc(N(C)C)c4ccc(C(=O)O)cc4n3)cc21 [Example 2-404, 2-{1-[(12-cyclohexyl-3-methoxy-6,7-dihydro-5-oxa-7a-azadibenzo[a,e]azulene-9-carbonyl)amino]-1-methylethyl]-4-dimethylaminoquinazoline-7-carboxylic acid] | < 100 nM
23 | COc1ccc2c(c1)OCCn1c-2c(C2CCCCC2)c2ccc(C(=O)NC(C)(C)c3nc4cc(CO)ccc4[nH]3)cc21 [Example 2-405, N-[1-(5-hydroxymethyl-1H-benzimidazol-2-yl)-1-methylethyl]-12-cyclohexyl-3-methoxy-6,7-dihydro-5-oxa-7a-azadibenzo[a,e]azulene-9-carboxamide] | < 100 nM

Same assay, conditions: 25° C., 90 min; [5,6-3H]UTP incorporation into RNA; read-out: HCV polymerase inhibitory activity IC50

Row | Structure (SMILES) | IC50
24 | COc1ccc2c(c1)OCCn1c-2c(C2CCCCC2)c2ccc(C(=O)N[C@@H](Cc3c[nH]c4ccc(O)cc34)c3csc(C)n3)cc21 [Example 2-385, [(S)-2-(5-hydroxy-1H-indol-3-yl)-1-(2-methylthiazol-4-yl)ethyl]-12-cyclohexyl-3-methoxy-6,7-dihydro-5-oxa-7a-azadibenzo[a,e]azulene-9-carboxamide] | < 100 nM
